Data set [1] has as its system fibrin formation in anterior sac. The data set is described as follows: Inhibition of fibrin formation in anterior sac after argon laser irradiation of iris, slit lamp evaluation. In kind it is in vivo, colored house rabbits. The source says:
Reference Example--Argatroban concentration and inhibition of fibrin formation in anterior sac
Animal used: 18 colored house rabbits weighing 2 kg and showing no abnormality in the eyes by visual observation
Drug used: test drug (a solution of argatroban at a concentration of 0.1 W/V % or 0.2 W/V % prepared according to the eye drop of Example 1)
: control (physiological saline)
Test: Fibrin was formed in anterior sac by irradiation at four sites in iris with argon laser (AC-3500, Nidek). The irradiation was conducted at a spot size of 100 μm, time 0.2 sec and output 1 watt. The fibrin in anterior sac was evaluated according to the evaluation criteria given below for the visual observation with time with a slit lamp after the irradiation up to 3 hours thereafter.
The test drug argatroban was administered 7 times by installation of 50 μl of the drug to one of the eyes every 10 minutes beginning from 30 minutes before the laser irradiation to 30 minutes after the irradiation, and physiological saline was administered to the other eye.
Slit lamp observation: The presence of fibrin at the 4 sites irradiated with laser was graded (0 or 1). When the fibrin amount was great, the grade was doubled. The fibrin in pupil region was graded in five stages of from 0 to 4 points. The full mark was; irradiation site: 4 points×2+pupil region: 4 points=12 points.

A short description of data set [2]: Solubility test of argatroban in water with various compounds (shaken with excess argatroban, HPLC). The format is physicochemical. As to conditions: for solubility thermodynamic at 12 h: phosphate buffer, pH 7, aqueous buffer, phosphate buffer pH 7.0, 25° C. The procedure:
The solubility of argatroban in water was determined by the use of various compounds.
An excess amount of argatroban was added to a phosphate buffer (pH 7.0) containing a compound at a concentration of 1.0 W/V % and the mixture was shaken at 25° C. for 12 hours. The amount of the argatroban dissolved in this solution was measured by HPLC to determine the solubility.

Data set [3] is described as follows: Solubility of argatroban in water (background statement). In kind it is physicochemical. As to conditions: 25° C., pH range 7.2-7.8. The procedure:
(§1) Taking one of the aforementioned arginine amides, (2R,4R)4-methyl-1-[N^2 -((RS)-3-methyl-1,2,3,4-tetrahydro-8-quinolinesulfonyl)-L-arginyl]-2-piperidinecarboxylic acid monohydrate (generally called argatroban) as an example, it is used at a concentration of 1 mg/ml or above as an eye drop or entoptic perfusate for the above-mentioned purpose.

Data set [4] in a line: Stability of aqueous solution of argatroban in a brown bottle (background statement). In kind it is physicochemical. On the procedure:
as §1

Data set [5] in a line: Stability test: aqueous solutions in glass ampoules preserved in shade or under light exposure. In kind it is physicochemical. As to conditions: argatroban with caffeine. The source says:
Aqueous solutions (pH 7) containing 0.05 W/V % or 0.1 W/V % argatroban and having the formulations 1-6 shown in Table 2 below were filled in glass ampoules and preserved in shade or under light exposure of […]. Each solution was examined for pH, appearance, insoluble matter and residual content of argatroban.

Data set [6] can be described thus: Eye irritation examination. In kind it is in vivo, house rabbits. The text has this: Eye irritation caused by the respective, aforementioned solutions of α-cyclodextrin, β-cyclodextrin, γ-cyclodextrin and caffeine was examined using house rabbits.
Data set [7] has as its system fibrin formation. As to conditions: administration for a few weeks after the operation, cited from earlier work.
The mark [8] stands for this setting: solutions of Example 1, compound at 1.0 W/V %.

The source of these data is patent US5605892A, “Compositions of arginine amide with cyclodextrin of caffeine, and methods of use” (priority 1993, dated 1997).

In general, thermodynamic solubility refers to the concentration in solution at equilibrium with solid. As usually defined, the solubility is how much of the substance goes into solution per volume. A higher solubility goes with much dissolved substance.

Regarding `CC1CNc2c(cccc2S(=O)(=O)N[C@@H](CCCNC(=N)N)C(=O)N2CC[C@@H](C)C[C@@H]2C(=O)O)C1.O` (mixture of isomers) [argatroban, (2R,4R)4-methyl-1-[N^2-((RS)-3-methyl-1,2,3,4-tetrahydro-8-quinolinesulfonyl)-L-arginyl]-2-piperidinecarboxylic acid monohydrate], in data set [1] (0.1 W/V % argatroban, 50 μl instilled 7 times every 10 minutes), the “percent inhibition of fibrin formation” value is listed as “about 50%”. In addition, the “inhibition of fibrin formation at every measurement point” value in data set [1] (0.1 W/V % argatroban, up to 3 hours after laser irradiation) was “significantly inhibited”. Also, the “inhibition of fibrin formation” value in data set [1] (0.2 W/V % argatroban, 50 μl instilled 7 times every 10 minutes) was “completely inhibited”. Moreover, the thermodynamic solubility at 12 h in data set [2] (argatroban with caffeine 1.0 W/V %) was 2000 µg/mL; in data set [2] (argatroban with α-cyclodextrin 1.0 W/V %), 1340 µg/mL; in data set [2] (argatroban with β-cyclodextrin 1.0 W/V %), 2590 µg/mL; in data set [2] (argatroban with γ-cyclodextrin 1.0 W/V %), 1320 µg/mL; in data set [2] (argatroban, no compound added) it was 930 µg/mL. Moreover, the “solubility of argatroban relative to that obtained when no compound was added” value is given as “about twice” in data set [2] (with caffeine 1.0 W/V %) and “about thrice” in data set [2] (with β-cyclodextrin 1.0 W/V %). In data set [2] (with α-, β-, γ-cyclodextrin and caffeine), the improvement in solubility entry is “superior improvement in solubility”. In data set [3], this compound returned a solubility of around 900 µg/mL. In addition, in data set [4], the “preservation stability of aqueous solution” value is listed as “can be preserved stably in a brown bottle”. For the same compound, in data set [5], the stability against light entry was “improved by caffeine”.

Consider `Cn1c(=O)c2c(ncn2C)n(C)c1=O` [caffeine], for which the Eye irritation entry in data set [6] (setting [8]) is recorded as “no specific problems, thus showing no harmful effect on the eye tissue”.

In the case of `COc1ccc2c(c1)c(CC(=O)O)c(C)n2C(=O)c1ccc(Cl)cc1` [indomethacin], the “effect after entoptic operation” value in data set [7] is given as “has not shown dependable effects”. The “adverse effects after entoptic operation” value in data set [7] (though not often) was “delay in healing of wounds or disorders in cornea”.

On to `OC[C@H]1O[C@@H]2O[C@H]3[C@H](O)[C@@H](O)[C@@H](O[C@H]4[C@H](O)[C@@H](O)[C@@H](O[C@H]5[C@H](O)[C@@H](O)[C@@H](O[C@H]6[C@H](O)[C@@H](O)[C@@H](O[C@H]7[C@H](O)[C@@H](O)[C@@H](O[C@H]1[C@H](O)[C@H]2O)O[C@@H]7CO)O[C@@H]6CO)O[C@@H]5CO)O[C@@H]4CO)O[C@@H]3CO` [α-cyclodextrin], for which the Eye irritation result in data set [6] (rabbit, in vivo) was “no specific problems, thus showing no harmful effect on the eye tissue”.

Take `OC[C@H]1O[C@@H]2O[C@H]3[C@H](O)[C@@H](O)[C@@H](O[C@H]4[C@H](O)[C@@H](O)[C@@H](O[C@H]5[C@H](O)[C@@H](O)[C@@H](O[C@H]6[C@H](O)[C@@H](O)[C@@H](O[C@H]7[C@H](O)[C@@H](O)[C@@H](O[C@H]8[C@H](O)[C@@H](O)[C@@H](O[C@H]1[C@H](O)[C@H]2O)O[C@@H]8CO)O[C@@H]7CO)O[C@@H]6CO)O[C@@H]5CO)O[C@@H]4CO)O[C@@H]3CO` [β-cyclodextrin]: in data set [6] (rabbit, in vivo), the Eye irritation result is listed as “no specific problems, thus showing no harmful effect on the eye tissue”.

As for `OC[C@H]1O[C@@H]2O[C@H]3[C@H](O)[C@@H](O)[C@@H](O[C@H]4[C@H](O)[C@@H](O)[C@@H](O[C@H]5[C@H](O)[C@@H](O)[C@@H](O[C@H]6[C@H](O)[C@@H](O)[C@@H](O[C@H]7[C@H](O)[C@@H](O)[C@@H](O[C@H]8[C@H](O)[C@@H](O)[C@@H](O[C@H]9[C@H](O)[C@@H](O)[C@@H](O[C@H]1[C@H](O)[C@H]2O)O[C@@H]9CO)O[C@@H]8CO)O[C@@H]7CO)O[C@@H]6CO)O[C@@H]5CO)O[C@@H]4CO)O[C@@H]3CO` [γ-cyclodextrin], the Eye irritation result in data set [6] (setting [8]) is recorded as “no specific problems, thus showing no harmful effect on the eye tissue”.
